Source: patent publication US20190018003A1, “TUMOR DISCRIMINATION METHOD, DIAGNOSTIC AGENT FOR TUMOR, AND SENSITIZER FOR TUMOR DIAGNOSIS” (TOTO LTD., priority 2017, published 2019)

What was measured:
[1] = tested on: T24 urinary bladder cancer cells; experiment: Fluorescence enhancement in T24 cells by simultaneous administration of fluorescent dye (ALA) and particles; assay type: cell-based, human; settings: Example 8, administration of fluorescent dye only, immediately after observation light irradiation
Description: An aqueous ALA solution (50 mmol/l) was mixed into an MEM medium (MEM, GlutaMAX™ supplement (Thermo Fisher Scientific)) to form a 4 mmol/l ALA solution. Further, an aqueous solution of light scattering particles (2) (ii) was mixed into an MEM medium to form light scattering particle solutions of 0.001, 0.002, and 0.02 w/v %.
Evaluation was performed as follows. The medium of the T24 cells on a 6-well plate, obtained in Example 3, was removed by an aspirator, and thereto was added 2 ml of PBS (−) (Thermo Fisher Scientific). Once again, PBS (−) was removed by an aspirator, thereto was added 2 ml of a mixed solution obtained by mixing 1 ml of the ALA solution and 1 ml of the light scattering particle solution, and the system was cultured under conditions of 3TC and 5 v/v % CO2 for 2 hours. Then, the mixed solution of the cells on the 6-well plate was removed by an aspirator, thereto was added 2 ml of HBSS (−) (Thermo Fisher Scientific) to wash the residue, HBSS (−) was removed again by an aspirator, to the residue was added 2 ml of HBSS (−), and the solution was used for detection.
Detection of fluorescence was performed in the same manner as in Example 4 by using an inverted fluorescence microscope and, from the images acquired, fluorescence intensities were obtained and relative fluorescence intensities were calculated.

[2] = tested on: UM-UC-3 urinary bladder cancer cells; experiment: Fluorescence enhancement in UM-UC-3 cells detected by optical spectral detector (635 nm); assay type: cell-based, human; settings: Example 17, ALA 2 mmol/l, particles 0.001 w/v %, 405 nm excitation, 635 nm detection, immediately after light irradiation
From the text: An aqueous ALA solution (50 mmol/l) was mixed into an E-MEM medium (ATCC-formulated Eagle's Minimum Essential Medium (ATCC)) to form a 2 mmol/l ALA solution. Further, aqueous solutions of light scattering particles (2) (ii) and 3 (ii) were mixed into an E-MEM medium to respectively form a light scattering particle solution having a concentration of 0.001 w/v %.
The medium of the UM-UC-3 cells on a 6-well plate, obtained in Example 3, was removed by an aspirator, and evaluation thereof was performed under the same conditions as in Example 5 and the solution was used for detection.
Detection was performed by using an optical spectral detector (USB 2000, a small sized fiber optical spectroscope, Ocean Optics) at room temperature in a dark place. […] Fluorescence generated therefrom was passed through a collimate lens disposed on the upper surface in a 50° direction, the collimate lens having a focal distance of 10.9 mm and a numerical aperture of 0.25 (F220SMA-A, Thorlabs) and, further, through an optical fiber (M59L01, Thorlabs) of φ=1 mm and a numerical aperture of 0.5, and was detected by the above optical spectral detector. […] And, by obtaining a difference in each measurement sample by subtracting the background intensity value from an intensity value of the measurement sample at a wavelength of 635 nm, the fluorescence detection intensity was calculated. […]

**Q.** For `NCC(=O)CCC(=O)O` [fluorescent dye, 5-aminolevulinic acid], which Relative fluorescence intensity [1] is on record?
**A.** 1.0

**Q.** What about the “Relative detected fluorescence intensity” value [2] of the same compound?
**A.** 1.0
